# According to paper PMC3469757 (Journal of medicinal chemistry, 2012):
# Columns and labels:
# human TRPV1 [1] = target: T1, human TRPV1 (Homo sapiens, UniProt Q8NER1); assay: Capsaicin assay; assay type: cell-based
# human TRPV1 [2] = target: T1, human TRPV1; assay: pH assay; assay type: cell-based; details: hTRPV1 in CHO cells
# male NMRI mice = assay: Capsaicin induced hypothermia in mice; assay type: in vivo, mouse
# [3] = tested on: panel of 135 other receptors and enzymes (CEREP); assay: Selectivity panel; details: 10 µM
# C57BL/6J wild type mice = assay: Body temperature in wild type mice; assay type: in vivo, mouse; details: 1 mg/kg oral, 45 min and 60 min post administration
# TRPV1 knockout mice = assay: Body temperature in TRPV1 knock-out mice; assay type: in vivo, mouse; details: 1 mg/kg oral
# human TRPV1 [4] = target: T1, human TRPV1; assay: [3H]resiniferatoxin binding; details: data not shown
# [5] = tested on: CCI-induced cold allodynia in rats; assay: Rat Bennett model of neuropathic pain; assay type: in vivo; details: po
# T1 sequence (Q8NER1 whole entry): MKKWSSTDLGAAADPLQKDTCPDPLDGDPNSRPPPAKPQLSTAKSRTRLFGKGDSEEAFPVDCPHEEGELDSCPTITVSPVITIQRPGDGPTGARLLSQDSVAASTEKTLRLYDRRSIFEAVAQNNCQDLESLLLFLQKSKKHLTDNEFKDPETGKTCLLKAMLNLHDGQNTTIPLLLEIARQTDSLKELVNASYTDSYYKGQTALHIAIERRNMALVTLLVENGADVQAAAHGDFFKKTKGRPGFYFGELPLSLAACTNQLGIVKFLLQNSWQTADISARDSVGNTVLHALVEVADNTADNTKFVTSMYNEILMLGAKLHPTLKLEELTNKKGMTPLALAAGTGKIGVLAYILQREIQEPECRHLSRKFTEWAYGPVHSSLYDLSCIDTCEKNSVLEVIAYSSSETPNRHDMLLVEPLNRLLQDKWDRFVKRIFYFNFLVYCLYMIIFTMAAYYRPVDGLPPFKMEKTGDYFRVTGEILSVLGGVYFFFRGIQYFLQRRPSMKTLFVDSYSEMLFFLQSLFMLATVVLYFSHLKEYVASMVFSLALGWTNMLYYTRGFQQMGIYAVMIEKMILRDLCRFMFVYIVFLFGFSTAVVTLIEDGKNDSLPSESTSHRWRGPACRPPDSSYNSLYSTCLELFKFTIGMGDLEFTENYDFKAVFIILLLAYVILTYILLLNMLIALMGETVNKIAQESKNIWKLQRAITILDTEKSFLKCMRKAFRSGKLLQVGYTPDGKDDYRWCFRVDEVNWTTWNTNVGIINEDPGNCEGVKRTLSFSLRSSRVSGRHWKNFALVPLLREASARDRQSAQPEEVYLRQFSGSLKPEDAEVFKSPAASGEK
smiles,measurement,setting,value
"CC(C(=O)NCc1ccc(C(F)(F)F)nc1N1CCNCC1)c1ccc(NS(C)(=O)=O)c(F)c1 (stereo not shown) [Compound 81, 2-(3-Fluoro-4-(methylsulfonamido)phenyl)-N-((2-(piperazin-1-yl)-6-(trifluoromethyl)pyridin-3-yl)methyl)propanamide]",hTRPV1 antagonism in words,human TRPV1 [1]; hTRPV1 in CHO cells,weak antagonist
same,IC50,"human TRPV1 [2]; read-out: IC50 [pH], activator pH 6.0 to 6.3",> 10 µM
"COc1cc(CNC(=O)CCCC/C=C/C(C)C)ccc1O [capsaicin, reference compound]",body temperature after capsaicin injection,"male NMRI mice; 3 mg/kg intraperitoneal, 15 min post injection, from 37.1 ± 0.1 °C",34.0 ± 0.1 °C
"CC1CCN(c2nc(C(F)(F)F)ccc2CNC(=O)[C@@H](C)c2ccc(NS(C)(=O)=O)c(F)c2)CC1 [Compound 49S, (S)-2-(3-Fluoro-4-(methylsulfonamido)phenyl)-N-((2-(4-methylpiperidin-1-yl)-6-(trifluoromethyl)pyridin-3-yl)methyl)propanamide]",number of targets not negative in selectivity panel,[3],7
same,number of targets with greater than 50% inhibition,[3],3
same,effect on capsaicin induced decrease of body temperature,"male NMRI mice; 0.3 mg/kg oral, 15 min before 3 mg/kg ip capsaicin",completely inhibited
same,body temperature increase,C57BL/6J wild type mice,about 1.3 ± 0.1 °C
same,hyperthermic response,TRPV1 knockout mice,completely absent
same,inhibition of [3H]resiniferatoxin binding to human TRPV1,human TRPV1 [4],inhibited
same,side effects like sedation or decreased locomotion,[5],not observed
same,fold more potent than 2 over all four TRPV1 activators,"human TRPV1 [1]; capsaicin, pH, heat (45°C) and NADA, versus compound 2",140–660 fold
same,fold more potent than lead 3 for capsaicin antagonism,"human TRPV1 [1]; hTRPV1 in CHO cells, versus compound 3",~20 fold
same,fold better than 2 for pH antagonism,human TRPV1 [2]; versus compound 2,200 fold
